Measured values reported in patent US20260216239A1 (Arizona Board of Regents on Behalf of the University of …, priority 2020, published 2026).
Entries after “also recorded” stand apart in the source; their conditions may differ.

Tested on: Bothrops moojeni venom
Experiment: Thrombelastography in human plasma of venom procoagulant activity after isolated exposure of venom to compounds
Format: biochemical
Settings: venom 2 μg/ml in plasma; for procoagulant activity of venom: venom exposed ≥5 min in PBS to 1 mM CORM-2, 100 μM RuCl3 or both, vs venom alone
Experimental: Thrombelastographic analyses. The volumes of subsequently described plasmatic and other additives summed to a final volume of 360 μl. Samples were composed of 320 μl of plasma; 16.4 μl of PBS, 20 μl of 200 mM CaCl2), and 3.6 μl of PBS or venom mixture, which were pipetted into a disposable cup in a Thrombelastograph® hemostasis system (Model 5000, Haemonetics Inc., Braintree, MA, USA) at 37° C., and then rapidly mixed by moving the cup up against and then away from the plastic pin five times. The following viscoelastic parameters described previously (see, Nielsen V G (2019) J Thromb Thrombolysis 47, 73-79; Gessner G, et al., (2017) Eur J Pharmacol 815, 33-41; Nielsen V G, Wagner M T, Frank N (2020) Int J Mol Sci 21, 2082; Lazić D, Arsenijević A, Puchta R, Bugarčić ŽD, Rilak A (2016) Dalton Trans 45, 4633; Hanif M, et al., (2017) ChemPlusChem 82, 841-847) were measured: time to maximum rate of thrombus generation (TMRTG): this is the time interval (minutes) observed prior to maximum speed of clot growth; maximum rate of thrombus generation (MRTG): this is the maximum velocity of clot growth observed (dynes/cm^2/second); and total thrombus generation (TTG, dynes/cm^2), the final viscoelastic resistance observed after clot formation.
(§1) B. moojeni. This venom was exposed to 0 or 1 mM CORM-2 in the presence of 0 or 100 μM RuCl3 in PBS for at least 5 minutes at room temperature prior to placement into plasma followed immediately with commencement of thrombelastographic analysis. The final concentration of this venom in plasma was 2 μg/ml.
Given the aforementioned, the experimental conditions utilized were: 1) V condition—venom in PBS; 2) Ru(II) condition—venom exposed to CORM-2; 3) Ru(III) condition—venom exposed to RuCl3; 4) Ru(II+III) condition—venom exposed to CORM-2 and RuCl3 simultaneously. After the 5 minute period at room temperature, 3.6 μl of one of these solutions was added to the plasma sample in the plastic thrombelastograph cup.
The volumes of subsequently described plasmatic and other additives summed to a final volume of 360 μl. Samples were composed of 320 μl of plasma; 16.4 μl of PBS, 20 μl of 200 mM CaCl2), and 3.6 μl of PBS or venom mixture, which were pipetted into a disposable cup in a Thrombelastograph® hemostasis system (Model 5000, Haemonetics Inc., Braintree, MA, USA) at 37° C., and then rapidly mixed by moving the cup up against and then away from the plastic pin five times. The following viscoelastic parameters described previously (see, Nielsen, V. G. J Thromb Thrombolysis 2019, 47, 73-79; Gessner, G.; et al., Eur J Pharmacol 2017, 815, 33-41; Nielsen, V. G.; Wagner, M. T.; Frank, N. Int J Mol Sci 2020, 21, 2082; Lazid, D.; et al., Dalton Trans 2016, 45, 4633; Hanif, M.; et al., ChemPlusChem 2017, 82, 841-847) were measured: time to maximum rate of thrombus generation (TMRTG): this is the time interval (minutes) observed prior to maximum speed of clot growth; maximum rate of thrombus generation (MRTG): this is the maximum velocity of clot growth observed (dynes/cm2/second); and total thrombus generation (TTG, dynes/cm2), the final viscoelastic resistance observed after clot formation.
as §1, with “CORM-2 or CORM-3” for “CORM-2”, “analysis. This venom was also exposed to 0 or 1 mM CORM-2 in the presence of 0 or 100 μM carboplatin in another series of experiments.” for “analysis.”
Given the aforementioned, the experimental conditions utilized were: 1) V condition—venom in PBS; 2) Ru(II) condition—venom exposed to CORM-2 or CORM-3; 3) Ru(III) condition—venom exposed to RuCl3; 4) Ru(II+III) condition—venom exposed to CORM-2 or CORM-3 and RuCl3 simultaneously; 5) Pt(II) condition—venom exposed to carboplatin; and 6) Pt+Ru condition—venom exposed to carboplatin and CORM-2.

[1] = 100 μM carboplatin, 1 mM CORM-2 or both
[2] = 1 mM CORM-2, 100 μM RuCl3 or both
[3] = 1 mM CORM-3, 100 μM RuCl3 or both
[4] = venom exposed ≥5 min in PBS to 1 mM CORM-3, 100 μM RuCl3 or both

[C-]#[O+].[C-]#[O+].[C-]#[O+].[C-]#[O+].[C-]#[O+].[C-]#[O+].[Cl][Ru][Cl].[Cl][Ru][Cl] [CORM-2, tricarbonyldichlororuthenium(II) dimer]
maximum rate of thrombus generation (MRTG) [1]: decreased
time to maximum rate of thrombus generation (TMRTG) [1]: significantly increased
maximum rate of thrombus generation (MRTG) [2]: decrease
time to maximum rate of thrombus generation (TMRTG) [2]: prolonged; also recorded: significant increase
procoagulant activity of venom: significant loss of activity; also recorded: inhibition of procoagulant activity

[Cl][Ru]([Cl])[Cl] [RuCl3, ruthenium(III) chloride]
maximum rate of thrombus generation (MRTG) [3]: did not significantly change
total thrombus generation (TTG) [3]: significantly increased
procoagulant activity of venom: no significant effect; also recorded: did not significantly diminish
time to maximum rate of thrombus generation (TMRTG) [4]: significant increase

Tricarbonylchloro(glycinato)ruthenium [CORM-3]
maximum rate of thrombus generation (MRTG) [3]: did not significantly change
total thrombus generation (TTG) [3]: significantly increased
time to maximum rate of thrombus generation (TMRTG) [4]: significant increase
